# Data as given in patent US20120065228A1, “COMPOSITIONS AND METHODS FOR TREATING, CONTROLLING, REDUCING, OR AMELIORATING OCULAR INFLAMMATORY WITH LOWER RISK OF INCREASED INTRAOCULAR PRESSURE” (priority 2007, published 2012).
# Key:
# [1] = tested on: intraocular pressure (IOP) in New Zealand White rabbits; assay: Intraocular pressure in New Zealand White rabbits, topical dosing four times daily; type: in vivo
# Procedure: On Days 1-31, animals received daily topical doses of the appropriate test article into the right eye. Animals were dosed four times per day, with doses administered 2 hours apart. Doses were administered using a calibrated 50-μL pipette. The eyelids were held close for 10 seconds immediately following dosing. The time of each dose administration was recorded.
# Intraocular pressure (“IOP”) was determined for both eyes of each animal on Days 3, 5, 10, 12, 16, 18, 22, 24, 26, 30, and 32. LOP was evaluated with a Medtronic Solan, Model 30 classic pneumatonometer. Proparacaine hydrochloride 0.5% (1 drop) was delivered to each eye prior to IOP measurement. IOP was measured on Monday, Wednesday, and Friday of each week. A two-point diurnal curve was established: IOP was recorded at 8 a.m. and 12 p.m. on Day 3, and at 8 a.m. and 2 p.m. on later days, with a ±1 hour range for each of these times. The time of the measurements was recorded.
# Descriptive statistics were prepared for IOP data of each treatment group (left and right eyes separately) at each measurement interval. The statistics included the number of observations (“N”), mean, standard deviation (“STD”), and standard error (“SEM”). Statistical analyses were conducted on IOP results using Statistical Analysis Systems (SAS Institute, Inc., Cary, N.C., V8.0). Parameters were evaluated using analysis of variance/GLM Procedure followed by Tukey's Standardized Range Test (Tukey, 1985) for post hoc comparisons of group means. The level of significance was set at a probability of p<0.05 for all statistical procedures. Group IOP means were compared at each interval, with left and right eyes compared separately.
# IOP data for the following six animals were excluded from group statistics: Group A, Nos. 3081, 3037, 3068, and 3011; Group C, No. 3034; and Group E, No. 3084.
# monkey TM cells = assay: Cell metabolic activity (resazurin reduction) assay in monkey TM cells; type: cell-based, rhesus monkeys (Macaca mulatta); conditions: at the conclusion of the treatment periods
# Procedure: A modification of previously described methods^40 was employed to evaluate cell metabolic activity, an index of cell viability. After collection of CM samples, cells were briefly rinsed in modified Hanks balanced salt solution containing Ca^++ and Mg^++ (“MHBSS”), and then 0.0025% (w/v) resazurin (Sigma) in MHBSS was added to sample wells. Plates were incubated (37° C., 5% CO2, 95% humidity) for 90 minutes, after which fluorescence (Excitation 560 nm, Emission 590 nm) was read (Victor 3V Multilabel Counter, Wallac, Turku, Finland). As a positive control for decreased cellular metabolic reduction of resazurin, in each plate an additional well of vehicle control-treated cells was preincubated with 0.06% hydrogen peroxide (Fisher, Atlanta, Ga.) in MHBSS.
smiles,measurement,setting,value
Cc1ccc2c(NCC(O)(CC(C)(C)c3cc(F)cc4c3OCC4)C(F)(F)F)cccc2n1 (centres unmarked) [BOL-303242-X],"Intraocular Pressure, MEAN","[1]; treated right eyes, A.M. readings, Day 5, 1 mg/g (Group D)",24.7 mmHg
same,"Intraocular Pressure, MEAN","[1]; treated right eyes, A.M. readings, Day 5, 5 mg/g (Group C)",24.7 mmHg
same,"Intraocular Pressure, MEAN","[1]; treated right eyes, A.M. readings, Day 5, 10 mg/g (Group B)",23.8 mmHg
same,"Intraocular Pressure, MEAN","[1]; treated right eyes, A.M. readings, Day 10, 1 mg/g (Group D)",24.8 mmHg
same,"Intraocular Pressure, MEAN","[1]; treated right eyes, A.M. readings, Day 10, 5 mg/g (Group C)",25.2 mmHg
same,"Intraocular Pressure, MEAN","[1]; treated right eyes, A.M. readings, Day 10, 10 mg/g (Group B)",24.5 mmHg
same,"Intraocular Pressure, MEAN","[1]; treated right eyes, A.M. readings, Day 12, 1 mg/g (Group D)",23.4 mmHg
same,"Intraocular Pressure, MEAN","[1]; treated right eyes, A.M. readings, Day 12, 5 mg/g (Group C)",25.0 mmHg
same,"Intraocular Pressure, MEAN","[1]; treated right eyes, A.M. readings, Day 12, 10 mg/g (Group B)",23.9 mmHg
same,"Intraocular Pressure, MEAN","[1]; treated right eyes, A.M. readings, Day 16, 1 mg/g (Group D)",22.1 mmHg
same,"Intraocular Pressure, MEAN","[1]; treated right eyes, A.M. readings, Day 16, 5 mg/g (Group C)",24.3 mmHg
same,"Intraocular Pressure, MEAN","[1]; treated right eyes, A.M. readings, Day 16, 10 mg/g (Group B)",23.4 mmHg
same,"Intraocular Pressure, MEAN","[1]; treated right eyes, A.M. readings, Day 18, 1 mg/g (Group D)",23.7 mmHg
same,"Intraocular Pressure, MEAN","[1]; treated right eyes, A.M. readings, Day 18, 5 mg/g (Group C)",23.9 mmHg
same,"Intraocular Pressure, MEAN","[1]; treated right eyes, A.M. readings, Day 18, 10 mg/g (Group B)",22.3 mmHg
same,"Intraocular Pressure, MEAN","[1]; treated right eyes, A.M. readings, Day 22, 1 mg/g (Group D)",23.2 mmHg
same,"Intraocular Pressure, MEAN","[1]; treated right eyes, A.M. readings, Day 22, 5 mg/g (Group C)",22.4 mmHg
same,"Intraocular Pressure, MEAN","[1]; treated right eyes, A.M. readings, Day 22, 10 mg/g (Group B)",22.4 mmHg
same,"Intraocular Pressure, MEAN","[1]; treated right eyes, A.M. readings, Day 24, 1 mg/g (Group D)",22.1 mmHg
same,"Intraocular Pressure, MEAN","[1]; treated right eyes, A.M. readings, Day 24, 5 mg/g (Group C)",23.8 mmHg
same,"Intraocular Pressure, MEAN","[1]; treated right eyes, A.M. readings, Day 24, 10 mg/g (Group B)",21.2 mmHg
same,"Intraocular Pressure, MEAN","[1]; treated right eyes, A.M. readings, Day 26, 1 mg/g (Group D)",23.1 mmHg
same,"Intraocular Pressure, MEAN","[1]; treated right eyes, A.M. readings, Day 26, 5 mg/g (Group C)",22.1 mmHg
same,"Intraocular Pressure, MEAN","[1]; treated right eyes, A.M. readings, Day 26, 10 mg/g (Group B)",21.8 mmHg
same,"Intraocular Pressure, MEAN","[1]; treated right eyes, A.M. readings, Day 30, 1 mg/g (Group D)",24.2 mmHg
same,"Intraocular Pressure, MEAN","[1]; treated right eyes, A.M. readings, Day 30, 5 mg/g (Group C)",22.9 mmHg
same,"Intraocular Pressure, MEAN","[1]; treated right eyes, A.M. readings, Day 30, 10 mg/g (Group B)",22.7 mmHg
same,"Intraocular Pressure, MEAN","[1]; treated right eyes, A.M. readings, Day 32, 1 mg/g (Group D)",24.9 mmHg
same,"Intraocular Pressure, MEAN","[1]; treated right eyes, A.M. readings, Day 32, 5 mg/g (Group C)",23.4 mmHg
same,"Intraocular Pressure, MEAN","[1]; treated right eyes, A.M. readings, Day 32, 10 mg/g (Group B)",23.9 mmHg
same,"Intraocular Pressure, MEAN","[1]; treated right eyes, A.M. readings, Pre-Study, 1 mg/g (Group D)",24.4 mmHg
same,"Intraocular Pressure, MEAN","[1]; treated right eyes, A.M. readings, Pre-Study, 5 mg/g (Group C)",24.8 mmHg
same,"Intraocular Pressure, MEAN","[1]; treated right eyes, A.M. readings, Pre-Study, 10 mg/g (Group B)",24.0 mmHg
same,"Intraocular Pressure, MEAN","[1]; untreated left eyes, P.M. readings, Day 3, 1 mg/g (Group D)",25.0 mmHg
same,"Intraocular Pressure, MEAN","[1]; untreated left eyes, P.M. readings, Day 3, 5 mg/g (Group C)",23.9 mmHg
same,"Intraocular Pressure, MEAN","[1]; untreated left eyes, P.M. readings, Day 3, 10 mg/g (Group B)",23.3 mmHg
same,"Intraocular Pressure, MEAN","[1]; untreated left eyes, P.M. readings, Day 5, 1 mg/g (Group D)",24.7 mmHg
same,"Intraocular Pressure, MEAN","[1]; untreated left eyes, P.M. readings, Day 5, 5 mg/g (Group C)",24.8 mmHg
same,"Intraocular Pressure, MEAN","[1]; untreated left eyes, P.M. readings, Day 5, 10 mg/g (Group B)",25.2 mmHg
same,"Intraocular Pressure, MEAN","[1]; untreated left eyes, P.M. readings, Day 10, 1 mg/g (Group D)",24.9 mmHg
same,"Intraocular Pressure, MEAN","[1]; untreated left eyes, P.M. readings, Day 10, 5 mg/g (Group C)",24.6 mmHg
same,"Intraocular Pressure, MEAN","[1]; untreated left eyes, P.M. readings, Day 10, 10 mg/g (Group B)",23.5 mmHg
same,"Intraocular Pressure, MEAN","[1]; untreated left eyes, P.M. readings, Day 12, 1 mg/g (Group D)",23.7 mmHg
same,"Intraocular Pressure, MEAN","[1]; untreated left eyes, P.M. readings, Day 12, 5 mg/g (Group C)",23.3 mmHg
same,"Intraocular Pressure, MEAN","[1]; untreated left eyes, P.M. readings, Day 12, 10 mg/g (Group B)",24.1 mmHg
same,"Intraocular Pressure, MEAN","[1]; untreated left eyes, P.M. readings, Day 16, 1 mg/g (Group D)",21.9 mmHg
same,"Intraocular Pressure, MEAN","[1]; untreated left eyes, P.M. readings, Day 16, 5 mg/g (Group C)",20.4 mmHg
same,"Intraocular Pressure, MEAN","[1]; untreated left eyes, P.M. readings, Day 16, 10 mg/g (Group B)",21.4 mmHg
same,"Intraocular Pressure, MEAN","[1]; untreated left eyes, P.M. readings, Day 18, 1 mg/g (Group D)",22.7 mmHg
same,"Intraocular Pressure, MEAN","[1]; untreated left eyes, P.M. readings, Day 18, 5 mg/g (Group C)",21.9 mmHg
same,"Intraocular Pressure, MEAN","[1]; untreated left eyes, P.M. readings, Day 18, 10 mg/g (Group B)",22.1 mmHg
same,"Intraocular Pressure, MEAN","[1]; untreated left eyes, P.M. readings, Day 22, 1 mg/g (Group D)",22.1 mmHg
same,"Intraocular Pressure, MEAN","[1]; untreated left eyes, P.M. readings, Day 22, 5 mg/g (Group C)",22.1 mmHg
same,"Intraocular Pressure, MEAN","[1]; untreated left eyes, P.M. readings, Day 22, 10 mg/g (Group B)",22.6 mmHg
same,"Intraocular Pressure, MEAN","[1]; untreated left eyes, P.M. readings, Day 24, 1 mg/g (Group D)",22.9 mmHg
same,"Intraocular Pressure, MEAN","[1]; untreated left eyes, P.M. readings, Day 24, 5 mg/g (Group C)",22.2 mmHg
same,"Intraocular Pressure, MEAN","[1]; untreated left eyes, P.M. readings, Day 24, 10 mg/g (Group B)",22.8 mmHg
same,"Intraocular Pressure, MEAN","[1]; untreated left eyes, P.M. readings, Day 26, 1 mg/g (Group D)",22.1 mmHg
same,"Intraocular Pressure, MEAN","[1]; untreated left eyes, P.M. readings, Day 26, 5 mg/g (Group C)",22.3 mmHg
same,"Intraocular Pressure, MEAN","[1]; untreated left eyes, P.M. readings, Day 26, 10 mg/g (Group B)",21.4 mmHg
same,"Intraocular Pressure, MEAN","[1]; untreated left eyes, P.M. readings, Day 30, 10 mg/g (Group B)",21.7 mmHg
same,Cell viability (chemical reduction of resazurin) compared to vehicle controls,monkey TM cells,nor did any drug treatments result in a loss of cell viability
